# Test results: patent US20140235447A1, “METHODS FOR […] YIELD” (Syngenta Crop Protection LLC, priority 2013, published 2014)
# Where “and” joins values, the source holds several entries; their conditions need not be identical. Equal values may be shown once.
# Tests used:
# [1] = test system: cotton; test: Treatment of tropical cotton with single or multiple applications of 1-MCP, seed cotton yield; format: in vivo; settings: 9.6 GAI/HA
# Procedure: Four different replicates of treatment of cotton are performed. […] Treatment A designates application of cyclopropene at the stage of Pin Head Square +14 days. Treatment B designates application of cyclopropene at the stage of first flowers. […]
# [2] = test system: Tropical corn; test: Treatment of tropical corn with single or multiple applications of 1-MCP, crop yield; format: in vivo; settings: for Yield increase in kg/ha, Single app. @ V3-5: single application at stage of 3-5 fully collared leaves; for Yield increase in kg/ha, Single app @ V10: single application at stage of 10 leaves; for Yield increase in kg/ha, Double app. @ V3&10: two applications, 3-5 fully collared leaves and 10 leaf stage
# Procedure: Tropical corn is treated with a combination of extruded granules of dextrose containing 0.1% 1-MCP and coated sand granules also containing 0.1% 1-MCP. The plants are treated with (1) a single application at the stage of 3-5 fully collared leaves; (2) a single application at the stage of 10 leaves; or (3) two applications with a first application at stage of 3-5 fully collared leaves and a second application at the 10 leaf stage. Dosages of 5 g/hectare, 10 g/hectare, and 25 g/hectare 1-MCP are applied for each of the three different treatment regimes.
# The results are presented in Table 1 and FIG. 1 with yield being measured in kg/hectare. For each dosage amount the left bar designates treatment 1 (a single application at the stage of 3-5 fully collared leaves), the middle bar designates treatment 2 (a single application at the stage of 10 leaves), and the right hand bar designates treatment 3 (application at both the stage of 3-5 fully collared leaves and again at the 10 leaf stage). For each of the 5 g/hectare treatment, the 10 g/hectare treatment, and the 25 g/hectare treatment, the yield is increased by more than 150% for plants undergoing two treatments when compared to plants treated only once.
smiles,measurement,setting,value
"CC1=CC1 [1-MCP, 1-methylcyclopropene]","Yield difference between treated plots and untreated checks, Double Applications AB: Floral buds enlarged/Early bloom, average",[1]; average of trials 1-5,713 kg/ha of seed cotton
same,"Yield difference between treated plots and untreated checks, Double Applications BC: Early bloom/10% of bolls at final size, average",[1]; average of trials 1-5,796 kg/ha of seed cotton
same,"Yield difference between treated plots and untreated checks, Single Application A: Floral buds distinctly enlarged, average",[1]; average of trials 1-5,577 kg/ha of seed cotton
same,"Yield difference between treated plots and untreated checks, Single Application B: Early bloom, average",[1]; average of trials 1-5,568 kg/ha of seed cotton
same,"Yield difference between treated plots and untreated checks, Single Application C: 10% of bolls at final size, average",[1]; average of trials 1-5,512 kg/ha of seed cotton
same,"Yield difference between treated plots and untreated checks, Double Applications AB: Floral buds enlarged/Early bloom",[1]; individual trials 1-5,560 kg/ha of seed cotton and 185 kg/ha of seed cotton and 883 kg/ha of seed cotton and 1563 kg/ha of seed cotton and 375 kg/ha of seed cotton
same,"Yield difference between treated plots and untreated checks, Double Applications BC: Early bloom/10% of bolls at final size",[1]; individual trials 1-5,696 kg/ha of seed cotton and 262 kg/ha of seed cotton and 1042 kg/ha of seed cotton and 1667 kg/ha of seed cotton and 313 kg/ha of seed cotton
same,"Yield difference between treated plots and untreated checks, Single Application A: Floral buds distinctly enlarged",[1]; individual trials 1-5,571 kg/ha of seed cotton and 167 kg/ha of seed cotton and 767 kg/ha of seed cotton and 1132 kg/ha of seed cotton and 250 kg/ha of seed cotton
same,"Yield difference between treated plots and untreated checks, Single Application B: Early bloom",[1]; individual trials 1-5,839 kg/ha of seed cotton and 369 kg/ha of seed cotton and 767 kg/ha of seed cotton and 757 kg/ha of seed cotton and 106 kg/ha of seed cotton
same,"Yield difference between treated plots and untreated checks, Single Application C: 10% of bolls at final size",[1]; individual trials 1-5,780 kg/ha of seed cotton and 280 kg/ha of seed cotton and 792 kg/ha of seed cotton and 715 kg/ha of seed cotton and −6 kg/ha of seed cotton
same,"Yield increase in kg/ha, Single app. @ V3-5",[2]; 5 g/ha 1-MCP,506 kg/ha
same,"Yield increase in kg/ha, Single app @ V10",[2]; 5 g/ha 1-MCP,351 kg/ha
same,"Yield increase in kg/ha, Double app. @ V3&10",[2]; 5 g/ha 1-MCP,1082 kg/ha
same,yield increase for plants undergoing two treatments compared to plants treated only once,[2]; 5 g/hectare treatment,more than 150%
same,"Yield increase in kg/ha, Single app. @ V3-5",[2]; 10 g/ha 1-MCP,557 kg/ha
same,"Yield increase in kg/ha, Single app @ V10",[2]; 10 g/ha 1-MCP,618 kg/ha
same,"Yield increase in kg/ha, Double app. @ V3&10",[2]; 10 g/ha 1-MCP,1580 kg/ha
same,yield increase for plants undergoing two treatments compared to plants treated only once,[2]; 10 g/hectare treatment,more than 150%
same,"Yield increase in kg/ha, Single app. @ V3-5",[2]; 20-25 g/ha 1-MCP,826 kg/ha
same,"Yield increase in kg/ha, Single app @ V10",[2]; 20-25 g/ha 1-MCP,543 kg/ha
same,"Yield increase in kg/ha, Double app. @ V3&10",[2]; 20-25 g/ha 1-MCP,1539 kg/ha
same,yield increase for plants undergoing two treatments compared to plants treated only once,[2]; 25 g/hectare treatment,more than 150%
